System: human Gal-alpha1,3-Gal-specific antibodies
Assay: Glycosylated peptide competitive assay on Gal-BSA coated plates with human sera IB72
Format: binding
Details: mixed with human sera, positive control
Protocol: To further evaluate the ability of the glycosylated specificity exchangers to bind to a pathogen, a glycosylated peptide competitive assay was performed using the most reactive human sera (IB72). In brief, Gal-alpha-1,3-Gal-labeled bovine serum albumin (Gal-BSA) was coated onto 96-well microplates in sodium carbonate buffer (pH: 9.6) at +4° C. overnight. Dilutions of human sera and dilutions of glyco-peptides (glycosylated HIV-specific ligand/receptor specificity exchangers or Gal-BSA) or non-glycosylated peptides (HIV-specific ligand/receptor specificity exchangers or BSA) were preincubated in phosphate-buffered saline (PBS) containing 1% bovine albumin, 2% goat serum and 0.05% Tween 20 at 37° C. for 1 h. The mixture was then added to the coated plates and incubated at 37° C. for 1 h, then washed 3 times with phosphate-buffered saline (PBS) containing 0.05% Tween 20 (pH: 7.4).
Bound antibodies were indicated with goat anti-human polyvalent Ig, conjugated with alkaline phosphatase. The plates were incubated and washed as described above. Plates were developed with phosphatase substrate at room temperature for 30 min, stopped with 1 M NaOH. Optical density (OD) at 405 nm/650 nm was determined to quantify the inhibition. […] Thus, specificity exchangers that bind Gal-alpha1,3-Gal-specific antibodies had been generated. […]

Question: “Gal-alpha-1,3-Gal-labeled bovine serum albumin [Gal-BSA]” was tested. Which “inhibition of human antibody binding to Gal-BSA” value did it give?
Answer: 100%
